Measured values as given in patent publication US8580747B2, “Cyclic natriuretic peptide constructs” (Palatin Technologies, Inc., priority 2006, dated 2013).
Read-outs that look alike come from different tables or passages of the source. Bridge positions count the residues as written; N and C are the ends. Square brackets hold non-standard residues; d marks the D form. Peptide text beside a SMILES is read from it. * marks the point of attachment. Piperazin2one(3S-Bu,6R-CO) = CCCC[C@@H]1NC[C@H](C(=O)*)NC1=O; X2 = N=C(N)NCCC[C@@H]1C(=O)N[C@@H](C(N)=O)CN1*; X1 = N=C(N)NCCC[C@H]1C(=O)N[C@@H](C(N)=O)CN1*; dNle = CCCC[C@@H](N)C(=O)O; Heptanoyl = CCCCCCC(=O)*; Nle = CCCC[C@H](N)C(=O)O; Orn = NCCC[C@H](N)C(=O)O

Assays:
[1] = biological target: T1, NEP (neutral endopeptidase) (Homo sapiens, UniProt P08473); assay: hNEP resistance assay (digestion by neutral endopeptidase); assay type: in vitro ADME; settings: pH 7.4
T1 construct: purchased R&D Systems, Minneapolis, Minn; 1182-ZN
T1 sequence (P08473 52-750 limits assumed): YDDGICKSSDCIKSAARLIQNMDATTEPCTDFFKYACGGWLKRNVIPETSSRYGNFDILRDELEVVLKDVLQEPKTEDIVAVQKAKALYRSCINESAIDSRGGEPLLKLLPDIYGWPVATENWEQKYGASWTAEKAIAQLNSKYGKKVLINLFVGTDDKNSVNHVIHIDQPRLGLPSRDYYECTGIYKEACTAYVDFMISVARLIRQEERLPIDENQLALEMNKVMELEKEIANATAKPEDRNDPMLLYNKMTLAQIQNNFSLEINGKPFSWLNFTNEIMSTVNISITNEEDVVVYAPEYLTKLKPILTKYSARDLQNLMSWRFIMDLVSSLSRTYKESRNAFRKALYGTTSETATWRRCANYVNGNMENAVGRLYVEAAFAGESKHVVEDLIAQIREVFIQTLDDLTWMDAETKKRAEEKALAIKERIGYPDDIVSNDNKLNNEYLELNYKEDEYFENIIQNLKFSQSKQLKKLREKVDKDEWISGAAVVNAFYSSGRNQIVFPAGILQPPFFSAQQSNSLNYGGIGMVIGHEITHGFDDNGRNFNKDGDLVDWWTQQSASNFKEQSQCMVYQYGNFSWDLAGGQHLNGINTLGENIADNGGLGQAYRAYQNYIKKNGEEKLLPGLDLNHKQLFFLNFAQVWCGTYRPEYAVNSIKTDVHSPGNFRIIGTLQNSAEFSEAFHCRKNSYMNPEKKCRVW
Description: NEP resistance of various constructs of the invention was evaluated using the following experimental procedure. All constructs were diluted in 0.1 M Tris-HCL buffer (pH 7.4) to 100 μM. 40 μL of diluted constructs were added to each tube and all tubes were kept on ice. 40 μL of diluted NEP, either human recombinant NEP (R&D Systems, Minneapolis, Minn., catalogue #1182-ZN) at 8 ng/μL or mouse NEP (R&D Systems, catalog #1126-ZN) at 2.5 ng/μL, was added to each tube. The tubes were mixed gently and spun. […] At the end of the incubation time, the reaction was stopped by adding 5 μL of 10% TFA. […] The extent to which NEP was active against the constructs was then analyzed by HPLC and/or LC/MS. Data analysis included determining the percent of remaining starting material, i.e., undigested peptide construct, and the percent and sequence of each proteolytic fragment.

[2] = rat, in vivo, iv
[3] = rat, in vivo, sc
[4] = human recombinant NEP (neutral endopeptidase), incubation with human recombinant NEP at 37° C., 1 h, read-out: hNEP % of Starting Material 1 h
[5] = human recombinant NEP (neutral endopeptidase), incubation with human recombinant NEP at 37° C., 2 h, read-out: hNEP % of Starting Material 2 h
[6] = human, isolated enzyme neprilysin

Structure (SMILES)	clearance [2] [mL/min/kg]	AUC ([2]; 0.3 mg/kg) [µM·h]	Vd ([2]; 0.3 mg/kg) [L/kg]	clearance ([2]; 0.3 mg/kg) [mL/min/kg]	half-life ([2]; 0.3 mg/kg) [min]	AUC ([2]; 2 mg/kg) [µM·h]	Vd ([2]; 2 mg/kg) [L/kg]	clearance ([2]; 2 mg/kg) [mL/min/kg]	half-life ([2]; 2 mg/kg) [min]	remaining at 1 h, 50 µM [1, 6] [%]	remaining at 2 h, 50 µM [1, 6] [%]	other results
CCCC[C@@H]1NC[C@H](C(=O)N[C@H]2CSSC[C@@H](C(=O)N[C@@H](Cc3ccc(O)cc3)C(=O)N3C[C@H](C(N)=O)NC(=O)[C@@H]3CCCNC(=N)N)NC(=O)[C@H](CO)NC(=O)[C@H]([C@@H](C)CC)NC(=O)[C@H](CCCN)NC(=O)[C@H](CC(=O)O)NC(=O)[C@H](CCCC)NC(=O)[C@H](CCCNC(=N)N)NC(=O)CNC(=O)CNC(=O)[C@H](Cc3ccccc3)NC(=O)[C@H](Cc3c[nH]cn3)NC2=O)NC1=O [1-55] ({Piperazin2one(3S-Bu,6R-CO)}-CHFGGR[Nle]D[Orn]ISCY-X1; disulfide 1-12)	21	0.116	0.2	15	12	0.828	0.3	21	18			remaining at 1 h, 50 µM [1, 4]: 83%; remaining at 2 h, 50 µM [1, 5]: 70%; AUC ([3]; 5 mg/kg): 0.232 µM·h; Cmax ([3]; 5 mg/kg): 250 nM; Tmax ([3]; 5 mg/kg): 18 min; half-life ([3]; 5 mg/kg): 30 min
CCCCCCC(=O)N[C@H]1CSSC[C@@H](C(=O)N[C@@H](Cc2ccc(O)cc2)C(=O)N2C[C@H](C(N)=O)NC(=O)[C@@H]2CCCNC(=N)N)NC(=O)[C@H](CO)NC(=O)[C@H]([C@@H](C)CC)NC(=O)[C@H](CCCNC(=N)N)NC(=O)[C@H](CC(=O)O)NC(=O)[C@H](CCCC)NC(=O)[C@H](CCCNC(=N)N)NC(=O)CNC(=O)CNC(=O)[C@H](Cc2ccccc2)NC(=O)[C@H](Cc2c[nH]cn2)NC1=O [1-63] (Heptanoyl-CHFGGR[Nle]DRISCY-X1; disulfide 1-12)	203	0.033	5.8	546	18	0.067	4.6	290	18	67	44	AUC ([3]; 1 mg/kg): 0.007 µM·h; Cmax ([3]; 1 mg/kg): 26 nM; Tmax ([3]; 1 mg/kg): 6 min; half-life ([3]; 1 mg/kg): 12 min
CCCC[C@@H]1NC[C@H](C(=O)N[C@H]2CSSC[C@@H](C(=O)N[C@@H](Cc3ccc(O)cc3)C(=O)N3C[C@H](C(N)=O)NC(=O)[C@H]3CCCNC(=N)N)NC(=O)[C@H](CO)NC(=O)[C@H]([C@@H](C)CC)NC(=O)[C@H](CCCNC(=N)N)NC(=O)[C@H](CC(=O)O)NC(=O)[C@@H](CCCC)NC(=O)[C@H](CCCNC(=N)N)NC(=O)CNC(=O)[C@@H](C)NC(=O)[C@H](Cc3ccccc3)NC(=O)[C@H](Cc3c[nH]cn3)NC2=O)NC1=O [1-133] ({Piperazin2one(3S-Bu,6R-CO)}-CHF[dA]GR[dNle]DRISCY-X2; disulfide 1-12)	12											remaining at 1 h, 50 µM [1, 4]: 96%; remaining at 2 h, 50 µM [1, 5]: 93%
CCCC[C@@H]1NC[C@H](C(=O)N[C@H]2CSSC[C@@H](C(=O)N[C@@H](Cc3ccc(O)cc3)C(=O)N3C[C@H](C(N)=O)NC(=O)[C@H]3CCCNC(=N)N)NC(=O)[C@H](CO)NC(=O)[C@H]([C@@H](C)CC)NC(=O)[C@@H](CCCNC(=N)N)NC(=O)[C@H](CC(=O)O)NC(=O)[C@H](CCCC)NC(=O)[C@@H](CCCNC(=N)N)NC(=O)CNC(=O)CNC(=O)[C@H](Cc3ccccc3)NC(=O)[C@H](Cc3c[nH]cn3)NC2=O)NC1=O [1-118] ({Piperazin2one(3S-Bu,6R-CO)}-CHFGG[dR][Nle]D[dR]ISCY-X2; disulfide 1-12)	10									96	92	
CCCCCCC(=O)N[C@H]1CSSC[C@@H](C(=O)N[C@@H](Cc2ccc(O)cc2)C(=O)N2C[C@H](C(N)=O)NC(=O)[C@@H]2CCCNC(=N)N)NC(=O)[C@H](CO)NC(=O)[C@H]([C@@H](C)CC)NC(=O)[C@H](CCCNC(=N)N)NC(=O)[C@H](CC(=O)O)NC(=O)[C@@H](CCCC)NC(=O)[C@H](CCCNC(=N)N)NC(=O)CNC(=O)CNC(=O)[C@H](Cc2ccccc2)NC(=O)[C@H](Cc2c[nH]cn2)NC1=O [1-131] (Heptanoyl-CHFGGR[dNle]DRISCY-X1; disulfide 1-12)	21									87	70	
CCCCCCC(=O)N[C@H]1CSSC[C@@H](C(=O)N[C@@H](Cc2ccc(O)cc2)C(=O)N2C[C@H](C(N)=O)NC(=O)[C@@H]2CCCNC(=N)N)NC(=O)[C@H](CO)NC(=O)[C@H]([C@@H](C)CC)NC(=O)[C@H](CCCNC(=N)N)NC(=O)[C@H](CC(=O)O)NC(=O)[C@H](CCCC)NC(=O)[C@H](CCCNC(=N)N)NC(=O)CNC(=O)[C@@H](C)NC(=O)[C@H](Cc2ccccc2)NC(=O)[C@H](Cc2c[nH]cn2)NC1=O [1-130] (Heptanoyl-CHF[dA]GR[Nle]DRISCY-X1; disulfide 1-12)	92											remaining at 1 h, 50 µM ([1]; isolated enzyme neprilysin, incubation with human recombinant NEP at 37° C., 1 h, read-out: hNEP % of Starting Material 1 h): 75%; remaining at 2 h, 50 µM ([1]; isolated enzyme neprilysin, incubation with human recombinant NEP at 37° C., 2 h, read-out: hNEP % of Starting Material 2 h): 56%
CCCC[C@@H]1NC[C@H](C(=O)N[C@H]2CSSC[C@@H](C(=O)N[C@@H](Cc3ccc(O)cc3)C(=O)N3C[C@H](C(N)=O)NC(=O)[C@@H]3CCCNC(=N)N)NC(=O)[C@H](CO)NC(=O)[C@H]([C@@H](C)CC)NC(=O)[C@H](CCCNC(=N)N)NC(=O)[C@H](CC(=O)O)NC(=O)[C@H](CCCC)NC(=O)[C@H](CCCNC(=N)N)NC(=O)CNC(=O)CNC(=O)[C@H](Cc3ccccc3)NC(=O)[C@H](Cc3c[nH]cn3)NC2=O)NC1=O [1-18] ({Piperazin2one(3S-Bu,6R-CO)}-CHFGGR[Nle]DRISCY-X1; disulfide 1-12)	55	0.061	0.4	43	12	0.263	0.7	72	12	91	82	AUC ([3]; 1 mg/kg): 0.04 µM·h; Cmax ([3]; 1 mg/kg): 85 nM; Tmax ([3]; 1 mg/kg): 6 min; half-life ([3]; 1 mg/kg): 12 min; AUC ([3]; 5 mg/kg): 0.255 µM·h; Cmax ([3]; 5 mg/kg): 131 nM; Tmax ([3]; 5 mg/kg): 12 min; half-life ([3]; 5 mg/kg): 96 min
